Patent US20080009500A1, “Alpha-helix mimetics and methods relating to the treatment of fibrotic disorders” (priority 2005, published 2008)

Tests used:
S100A4 = assay: RT-PCR for S100A4 in bleomycin treated mice; assay type: in vivo; conditions: 5 mgs/Kg/day s.c.
From the text: (§1) FIGS. 16 and 17 show RT-PCR data for S100A4 (FIG. 16) and collagen1A2 (FIG. 17), which are increased in the bleomycin treated mice (treated with saline control).

collagen1A2 = assay: RT-PCR for collagen1A2 in bleomycin treated mice; assay type: in vivo; conditions: 5 mgs/Kg/day s.c.
From the text: as §1

IPF patient fibroblasts = assay: Western blots for S100A4 and E-Cadherin on whole cell lysates of cultured IPF fibroblasts; assay type: cell-based, human
Method: Western blots for S100A4 (also know as FSP-1 or fibroblast specific protein-1) and E-Cadherin were performed on whole cell lysates (FIG. 20).

[1] = test system: TCF/β-catenin transcription; assay: Bleomycin model in Bat-Gal transgenic mice, X-Gal staining of lung sections (TCF/catenin-driven beta-galactosidase read-out); assay type: in vivo
Method: (§2) Using this murine model of pulmonary fibrosis in transgenic Bat-Gal mice, ICG-001 (5 mg/Kg/day, administered via minipump) blocked >95% of bleomycin-induced TCF/β-catenin transcription.
These mice have a Beta-Galactosidase transgene driven by a TCF/Catenin driven promoter (i.e. a read out for activated Wnt/catenin signaling). The mice were given intratracheal saline or bleomycin and either treated with ICG-001 (5 mgs/Kg/day subcutaneously) or saline as vehicle control. The mice were sacrificed and the lungs sectioned and stained with X-Gal (blue color) A) intratracheal bleo+saline. B) intracheal bleo+ICG-001 C) saline +saline.
The dose was selected because ICG-001 reduces TCF/β-Catenin driven β-Galactosidase expression >95% at 5 mgs/Kg/day.

Aquaporin 5 = Aquaporin 5 immunostaining of lung tissue in the bleomycin animal model; assay type: in vivo, mice; conditions: bleomycin and ICG-001 vs bleomycin alone
Method: The aquaporins are water channels expressed in a variety of cell types. Aquaporin 5 is involved in the transportation of water across the apical surface of the alveolar epithelium and the epithelia of the submucosal glands in the upper airway and nasopharynx. (Krane, C. M., P.N.A.S. 98:14192-4, 2001; Yang, F. J. Biol. Chem. 278:32173-80, 2003). Because aquaporin 5 is a marker of Type 1 (differentiated) lung epithelium, its expression was assayed in lung tissue treated with bleomycin (FIG. 22A), bleomycin and ICG-001 (FIG. 22B), and saline (FIG. 22C), using the animal model as described in Example 2 (FIG. 15), and immunostaining with an antibody specific for Aquaporin 5.

[2] = test system: bleomycin induced fibrosis in C57/B16 mice; assay: Murine model of bleomycin induced pulmonary fibrosis, lung sections stained for collagen (trichrome), body weight, survival; assay type: in vivo
Method: Murine models of bleomycin induced fibrosis have been developed in order to study fibrotic disease progression.
as §2
There is an absence of airway epithelium in lower left compared to upper left (see arrow heads) and extensive collagen deposition (lower left). On the sixth day, either saline (upper right) or ICG-001 (5 mgs/Kg/day) was administered for 10 days after which the mice were sacrificed and sectioned. Of interest is the upper right (saline treatment) showing lack of normal airway epithelialization, extensive collagen deposition and intra-airway hypercellularity (fibroblasts and inflammatory influx).
The procedures were performed using the animal model as described in Example 2 (FIG. 15), and the sectioned lungs were stained for collagen.

[3] = IPF patient fibroblasts, RPMI 1640+10% FBS, 2 days
[4] = C57/B16 mice, bleomycin 5 days, then 5 mgs/Kg/day for 10 days
[5] = bleomycin and ICG-001 treatment

O=C1[C@H](Cc2ccc(O)cc2)N2C(=O)CCN(C(=O)NCc3ccccc3)[C@H]2CN1Cc1cccc2ccccc12 [ICG-001]
S100A4 message (RT-PCR) (S100A4): reduced essentially to negative control
collagen1A2 message (RT-PCR) (collagen1A2): reduced essentially to negative control
S100A4 expression (whole cell lysates) (IPF patient fibroblasts; ATCC IPF cells, RPMI1640+10% FBS, 2 days): decreased S100A4 expression
E-cadherin expression at the mRNA level (IPF patient fibroblasts; IPF patient fibroblasts): also true at the mRNA level
E-cadherin expression (Western blot, whole cell lysates) (IPF patient fibroblasts; [3]): increased E-cadherin expression
S100A4 expression (Western blot, whole cell lysates) (IPF patient fibroblasts; [3]): decreased S100A4 expression
reduction of TCF/β-Catenin driven β-Galactosidase expression ([1]; 5 mgs/Kg/day): > 95%
bleomycin-induced TCF/β-catenin transcription blocked ([1]; transgenic Bat-Gal mice, 5 mg/Kg/day via minipump): > 95%
aquaporin 5 expression (immunostaining) (Aquaporin 5): greatly increased
mortality ([2]; 5 mg/Kg/day): reduced mortality
disease progression ([2]; 5 mg/Kg/day, judged by mortality, histopathology and endogenous gene expression): not only halted but reversed disease progression
airway appearance in trichrome-stained lung sections [2, 4]: essentially normal
body weight [2, 4]: regained normal body weight
collagen levels in lung sections [2, 4]: normal collagen levels
survival ([2]; C57/B16 mice, bleomycin 5 days, then 5 mgs/Kg/day for 10 days, untreated controls did not survive): survived
alveolar fibrosis (lungs stained for collagen) [2, 5]: prevented alveolar fibrosis
interstitial fibrosis (lungs stained for collagen) [2, 5]: prevented interstitial fibrosis
fibrosis ([2]; over the 25 days of treatment): reversed fibrosis
